Results as given in article PMC8388125, “Kinetic and Structural Characterization of the Self-Labeling Protein Tags HaloTag7, SNAP-tag, and CLIP-tag” (Biochemistry, 2021).
Numbering of substitutions follows the chain as printed.

Legend:
Type in all cases: biochemical
[1] = target: T1, CLIP-tag (CLIP) (Homo sapiens, UniProt P16455, A121V/A127T/A154D/C150Q/C62A/G131N/G132T/G153S/K125A/K32I/L33F/M134L/M60I/N157P/Q115S/Q116H/R128A/R135D/S151G/S152D/S159L/Y114E); assay: CLIP labeling kinetics via microplate reader (FP over time); conditions: CLIP, plate reader, kinetic model 1
T1 construct: made in house; host or cells: E. coli BL21(DE3)-pLysS
T1 sequence (P16455 1-182 K32I/L33F/M60I/C62A/Y114E/Q115S/Q116H/A121V/K125A/A127T/R128A/G131N/G132T/M134L/R135D/C150Q/S151G/S152D/G153S/A154D/N157P/S159L limits assumed): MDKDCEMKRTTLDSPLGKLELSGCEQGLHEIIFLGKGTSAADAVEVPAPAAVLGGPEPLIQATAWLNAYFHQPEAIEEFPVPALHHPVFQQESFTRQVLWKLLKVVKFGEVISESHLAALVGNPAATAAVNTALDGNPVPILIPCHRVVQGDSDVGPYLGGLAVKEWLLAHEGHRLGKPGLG
Method: (§1) Labeling kinetics of SNAP and CLIP substrates were measured by recording FP over time using a microplate reader in a manner analogous to that of HT7 labeling kinetics described above with the following changes. The fluorescent substrate concentration was fixed to 20 nM, and protein concentrations were varied from 15 to 900 nM. Measurements were performed in SNAP-FP buffer.
(§2) Kinetic data from microplate reader assays were fitted to a simplified kinetic model (eq 13) described by differential eqs 14–16 using DynaFit. The dead time of the measurements and baseline FP value were put in as fixed parameters. Standard deviations (normal distribution verified) and confidence intervals of fitted parameters were estimated with the Monte Carlo method with standard settings (N = 1000, 5% worst fits discarded). In the case of BG, CP, and BC kinetics, the substrate concentration was fitted by DynaFit to rule out quantification errors of the BG, CP, or BC fluorophores. Accurate fitting of the concentration was ensured by including conditions under which protein is limiting and no maximum FP value was reached.

[2] = target: T2, SNAP-tag (SNAP) (Homo sapiens, UniProt P16455, A127T/A154D/C150Q/C62A/G131K/G132T/G153L/K125A/K32I/L33F/M134L/N157G/Q115S/Q116H/R128A/R135S/S151G/S152D/S159E); assay: SNAP labeling kinetics via microplate reader (FP over time)
T2 construct: made in house; host or cells: E. coli BL21(DE3)-pLysS
T2 sequence (P16455 1-182 K32I/L33F/C62A/Q115S/Q116H/K125A/A127T/R128A/G131K/G132T/M134L/R135S/C150Q/S151G/S152D/G153L/A154D/N157G/S159E limits assumed): T1 sequence (P16455 1-182 K32I/L33F/M60I/C62A/Y114E/Q115S/Q116H/A121V/K125A/A127T/R128A/G131N/G132T/M134L/R135D/C150Q/S151G/S152D/G153S/A154D/N157P/S159L limits assumed) with I60M, E114Y, V121A, N131K, D135S, S153L, P157G, L159E
Method: as §1, §2

[3] = target: T3, CLIPf (CLIP^E30R) (Homo sapiens, UniProt P16455, A121V/A127T/A154D/C150Q/C62A/E30R/G131N/G132T/G153S/K125A/K32I/L33F/M134L/M60I/N157P/Q115S/Q116H/R128A/R135D/S151G/S152D/S159L/Y114E); assay: CLIPf labeling kinetics via microplate reader (FP over time); conditions: plate reader
T3 construct: made in house; host or cells: E. coli BL21(DE3)-pLysS
T3 sequence (P16455 1-182 E30R/K32I/L33F/M60I/C62A/Y114E/Q115S/Q116H/A121V/K125A/A127T/R128A/G131N/G132T/M134L/R135D/C150Q/S151G/S152D/G153S/A154D/N157P/S159L limits assumed): T1 sequence (P16455 1-182 K32I/L33F/M60I/C62A/Y114E/Q115S/Q116H/A121V/K125A/A127T/R128A/G131N/G132T/M134L/R135D/C150Q/S151G/S152D/G153S/A154D/N157P/S159L limits assumed) with E30R
Method: as §1, §2

[4] = target: T4, hAGT (human O^6-alkylguanine-DNA alkyltransferase) (Homo sapiens, UniProt P16455); assay: hAGT labeling kinetics via microplate reader (FP over time); conditions: hAGT vs CLIP
T4 construct: StrepTag-II (N); enterokinase cleavage site (N); His10 (C); made in house; host or cells: E. coli BL21(DE3)-pLysS
T4 sequence (P16455 1-207): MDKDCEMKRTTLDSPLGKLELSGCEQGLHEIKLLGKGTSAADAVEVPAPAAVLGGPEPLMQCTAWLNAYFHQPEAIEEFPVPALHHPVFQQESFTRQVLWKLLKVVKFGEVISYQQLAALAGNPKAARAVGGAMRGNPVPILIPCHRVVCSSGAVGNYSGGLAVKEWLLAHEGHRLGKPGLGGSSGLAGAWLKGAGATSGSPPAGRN
Method: as §1, §2

kapp (value ± standard deviation) [1]: (1.85 ± 0.01) × 10^4 M^–1 s^–1
times slower reaction of SNAP than with BG-TMR ([2]; SNAP cross-reactivity): more than 1000 times
kapp (value ± standard deviation) ([2]; SNAP, plate reader, kinetic model 1): (3.20 ± 0.02) × 10^2 M^–1 s^–1
kapp [3]: (3.37 ± 0.01) × 10^4 M^–1 s^–1
times slower reaction with hAGT than with CLIP [4]: 25000 times
SMILES: CN(C)c1ccc2c(-c3cc(C(=O)NCc4ccc(COc5nccc(N)n5)cc4)ccc3C(=O)[O-])c3ccc(=[N+](C)C)cc-3oc2c1 [BC-TMR]
